Results from patent EP0900210B1, “ANTIVIRALLY ACTIVE HETEROCYCLIC AZAHEXANE DERIVATIVES” (Novartis AG, priority 1996, dated 1997).
Read-outs that look alike come from different tables or passages of the source.

How the values were obtained:
HIV-1-protease = molecular target: T1, HIV-1-protease (Human immunodeficiency virus type 1 group M subtype B, UniProt P04585); assay: Inhibition of HIV-1-protease with icosapeptide substrate […] (HPLC); format: biochemical
T1 construct: made in house
Description: The inhibitory action of the compounds of formula I on the proteolytic activity of HIV-1-protease can be shown, for example, according to known procedures (see A. D. Richards et al., J. Biol. Chem. 265(14), 7733-7736 (1990)). In that method the inhibition of the action of HIV-1-protease (preparation: see S. Billich et al., J. Biol. Chem. 263(34), 17905-17908 (1990)) is measured in the presence of the icosapeptide […] (a synthetic substrate of HIV-1-protease, prepared by peptide synthesis in accordance with known procedures (see J. Schneider et al., Cell 54, 363-368 (1988)), which contains as substrate analogue one of the cleavage sites of the gag-precursor protein (natural substrate of HIV-1-protease). That substrate and its cleavage products are analysed by high performance liquid chromatography (HPLC).
The test compound is dissolved in dimethyl sulfoxide. The enzymatic test is carried out by adding suitable dilutions of the inhibitor in 20 mM β-morpholinoethanesulfonic acid (MES) buffer pH 6.0 to the test mixture. That mixture consists of the above-mentioned icosapeptide (122 µM) in 20 mM MES-buffer pH 6.0. 100 µl are used per test batch. The reaction is started by the addition of […] of HIV-1-protease solution and is stopped after one hour's incubation at 37°C by the addition of 10 µl of 0.3M HClO4. After centrifugation of the sample at 10 000 x g for 5 minutes, 20 µl of the resulting supernatant are applied to a 125 x 4.6 mm Nucleosil® C18-5m-HPLC column (reversed-phase material supplied by Macherey & Nagel, Düren, FRG, based on silica gel that has been charged with C18alkyl chains). The uncleaved icosapeptide and its cleavage products are eluted from the column by means of the following gradient: 100 % eluant 1 → 50 % eluant 1 + 50 % eluant 2 (eluant 1: 10 % acetonitrile, 90 % H2O, 0.1 % trifluoroacetic acid (TFA); eluant 2: 75 % acetonitrile, 25 % H2O, 0.08 % TFA) for 15 minutes, throughflow rate 1 ml/min. The quantification of the eluted peptide fragments is carried out by measuring the peak height of the cleavage product at 215 nm.
Using the test system described above with the icosapeptide […], the IC50 values given below are obtained for the following Examples: […]

HIV-1/MN = assay: Protection of MT-2 cells against HIV infection (reverse transcriptase activity in supernatant); format: cell-based; settings: Human immunodeficiency virus 1, MT2, 96 h; read-out: ED90 (the source's name)
Description: For this test, MT-2-cells infected with HIV-1/MN are used. MT-2-cells have been transformed with HTLV-1 (a virus causing leukaemia) and a continuous producer thereof; they are therefore especially sensitive to the cytopathogenic effect of HIV. MT-2-cells can be obtained via the AIDS Research and Reference Reagent Program, Division of AIDS, NIAID, NIH from Dr. Douglas Richman (see J. Biol. Chem. 263, 5870-5875 (1988) and also Science 229, 563-566 1985)). The MT-2-cells are cultured in RPMI 1640-medium (Gibco, Scotland; RPMI comprises an amino acid mixture without glutamine) supplemented with 10% heat-inactivated foetal calf serum, glutamine and standard antibiotics. In all cases the cells, and also the virus stock solution used for the infection (HIV-1/MN), are free of mycoplasms. […] The titre of the HIV-1/MN virus stock solution (determined by titration onto MT-2-cells) is 4.2 x 10^5 TCID50/ml (TCID50 = Tissue Culture Infective Dose = dose that infects 50 % of the MT-2-cells). […] Prior to the test, 0.1 % (v/v) [alpha-^32P]dTTP is added to aliquots of the solution in order to establish a radioactivity of 10 µCi/ml.
After mixing, the plate is incubated for 2 hours at 37°C. […] The radioactivity on the filters is measured in a Matrix Packard 96-well counter (Packard, Zürich, Switzerland). […]

[1] = tested on: HIV-1 (infectious clone pNL4-3); assay: Transient DNA transfection assay in HeLaT4 cells, in vitro potency; format: cell-based; settings: Human immunodeficiency virus 1, HeLaT4
Text: (§1) By way of PCR-supported mutagenesis and cloning, HIV-1 protease mutants are generated that are based on the infectious clone pNL4-3 (freely available via the "NIH AIDS reference and reagent program", the original reference is A. Adachi et al. J. Virol (1986) 59, 284-91 - but it can, of course, be any other HIV clone, or even clinical material, provided that comparability is ensured). […] The cloned fragments are, for example, only 500 base pairs in length, all of the remainder being unchanged. By using mutations in always the same clone, direct comparability is ensured, which would not be the case in a direct comparison of clinical samples or of different HIV clones. […] That system is used as a transient DNA transfection system for tests: • 1) in order to identify possible cross-resistances of protease variants to several protease inhibitors; and • 2) in order to establish the potency and resistance profile of novel inhibitor candidates.
(§2) Instead of the strains mentioned, there may be used any human T4-positive cells, such as the HeLa T4 cells, deposited under that name by Richard Axel and Paul Maddon in "NIH AIDS reference and reagent program" and obtainable via that source.

46I/47V/50V (VX478) = assay: Transient DNA transfection assay in HeLaT4 cells, other resistant strains; format: cell-based, HIV-1; settings: 10nM; strains e.g. 46I/47V/50V (VX478); not quantified
Text: as §1, §2

[2] = Pharmacokinetics: plasma level in mice after oral administration; format: in vivo, female BALB/c mice; settings: mouse, oral administration of 120 mg/kg
Description: The blood is centrifuged (12 000 x g, 5 min) and the plasma removed.
The flow rate is 1 ml/min.

451/76F strain = 451/76F strain established against Lasinavir; comparison with saquinavir, indinavir, ritonavir
Text: as §1, §2

[3] = icosapeptide […] 122 µM, 20 mM MES pH 6.0, one hour at 37°C, read-out: IC50

COC(=O)N[C@H](C(=O)N[C@@H](Cc1ccccc1)[C@@H](O)CN(Cc1ccc(-c2cnccn2)cc1)NC(=O)[C@@H](NC(=O)OC)C(C)(C)C)C(C)C [Example 42, 1-[4-(Pyrazin-2-yl)-phenyl]-4(S)-hydroxy-2-[N-(N-methoxycarbonyl-(L)-tert-leucyl)amino]-5(S)-[N-(N-methoxycarbonyl-(L)-valyl)amino]-6-phenyl-2-azahexane]
IC50 (HIV-1-protease; [3]): 0.015 µM

CC[C@H](C)[C@H](NC(=O)OC)C(=O)N[C@@H](Cc1ccccc1)[C@@H](O)CN(Cc1ccc(-c2cnccn2)cc1)NC(=O)[C@@H](NC(=O)OC)[C@@H](C)CC [Example 43, 1-[4-(Pyrazin-2-yl)-phenyl]-4(S)-hydroxy-5(S)-2,5-bis[N-(N-methoxycarbonyl-(L)-iso-leucyl)amino]-6-phenyl-2-azahexane]
IC50 (HIV-1-protease; [3]): 0.037 µM

COC(=O)N[C@H](C(=O)N[C@@H](Cc1ccccc1)[C@@H](O)CN(Cc1ccc(-c2cccs2)cc1)NC(=O)[C@@H](NC(=O)OC)C(C)C)C(C)C [Example 45, 1-[4-(Thiophen-2-yl)-phenyl]-4(S)-hydroxy-5(S)-2,5-bis[N-(N-methoxycarbonyl-(L)-valyl)amino]-6-phenyl-2-azahexane]
IC50 (HIV-1-protease; [3]): 0.012 µM

COC(=O)N[C@H](C(=O)N[C@@H](Cc1ccccc1)[C@@H](O)CN(Cc1ccc(-c2ccccn2)cc1)NC(=O)[C@@H](NC(=O)OC)C(C)(C)C)C(C)(C)C [Example 46, 1-[4-(Pyridin-2-yl)-phenyl]-4(S)-hydroxy-5(S)-2,5-bis[N-(N-methoxycarbonyl-(L)-tert-leucyl)amino]-6-phenyl-2-azahexane]
EC90 (HIV-1/MN): 0.003 µM | IC90 [1]: < 0.03 µM | activity compared with other strains (46I/47V/50V (VX478)): more potent (not quantified) than that of saquinavir, ritonavir and indinavir | concentration at 0.5 h ([2]; 30 min after administration): 21.8 µM | concentration at 1.5 h ([2]; 90 min after administration): 31.8 µM | activity against a resistant variant (451/76F strain): comparable with saquinavir and better than that of indinavir | IC50 (HIV-1-protease; [3]): 0.026 µM

CC[C@H](C)[C@H](NC(=O)OC)C(=O)N[C@@H](Cc1ccccc1)[C@@H](O)CN(Cc1ccc(-c2ccccn2)cc1)NC(=O)[C@@H](NC(=O)OC)[C@@H](C)CC [Example 47, [4-(Pyridin-2-yl)-phenyl]-4(S)-hydroxy-5(S)-2,5-bis[N-(N-methoxycarbonyl-(L)-iso-leucyl)amino]-6-phenyl-2-azahexane]
IC50 (HIV-1-protease; [3]): 0.04 µM

COC(=O)N[C@H](C(=O)NN(Cc1ccc(-c2ccccn2)cc1)C[C@H](O)[C@H](Cc1ccccc1)NC(=O)[C@@H](NC(=O)OC)C(C)(C)C)C(C)C [Example 48, 1-[4-(Pyridin-2-yl)-phenyl]-4(S)-hydroxy-2-N-(N-methoxy-carbonyl-(L)-valyl)amino-5(S)-N-(N-methoxycarbonyl-(L)-tert-leucyl)amino-6-phenyl-2-azahexane]
IC50 (HIV-1-protease; [3]): 0.031 µM

COC(=O)N[C@H](C(=O)N[C@@H](Cc1ccccc1)[C@@H](O)CN(Cc1ccc(-c2ccccn2)cc1)NC(=O)[C@@H](NC(=O)OC)C(C)(C)C)C(C)C [Example 49, 1-[4-(Pyridin-2-yl)-phenyl]-4(S)-hydroxy-2-N-(N-methoxy-carbonyl-(L)-tert-leucyl)amino-5(S)-N-(N-methoxycarbonyl-(L)-valyl)amino-6-phenyl-2-azahexane]
IC50 (HIV-1-protease): 0.02 µM

CC[C@H](C)[C@H](NC(=O)OC)C(=O)N[C@@H](Cc1ccccc1)[C@@H](O)CN(Cc1ccc(-c2ccccn2)cc1)NC(=O)[C@@H](NC(=O)OC)C(C)C [Example 50, 1-[4-(Pyridin-2-yl)-phenyl]-4(S)-hydroxy-2-N-(N-methoxy-carbonyl-(L)-valyl)amino-5(S)-N-(N-methoxycarbonyl-(L)-iso-leucyl)amino-6-phenyl-2-azahexane]
IC50 (HIV-1-protease): 0.028 µM

CC[C@H](C)[C@H](NC(=O)OC)C(=O)NN(Cc1ccc(-c2ccccn2)cc1)C[C@H](O)[C@H](Cc1ccccc1)NC(=O)[C@@H](NC(=O)OC)C(C)C [Example 51, 1-[4-(Pyridin-2-yl)-phenyl]-4(S)-hydroxy-2-N-(N-methoxy-carbonyl-(L)-iso-leucyl)amino-5(S)-N-(N-methoxycarbonyl-(L)-valyl)amino-6-phenyl-2-azahexane]
IC50 (HIV-1-protease): 0.034 µM

CCOC(=O)N[C@H](C(=O)NN(Cc1ccc(-c2ccccn2)cc1)C[C@H](O)[C@H](Cc1ccccc1)NC(=O)[C@@H](NC(=O)OC)C(C)C)C(C)C [Example 52, 1-[4-(Pyridin-2-yl)-phenyl]-4(S)-hydroxy-2-N-(N-ethoxy-carbonyl-(L)-valyl)-amino-5(S)-N-(N-methoxycarbonyl-(L)-valyl)amino-6-phenyl-2-azahexane]
IC50 (HIV-1-protease; [3]): 0.034 µM
